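The compound was tested at five concentrations on cells cultured in 96-well plates, with a 48-hour exposure period. Here, GI50 denotes the concentration required for 50% inhibition of growth. At the TGI there is no net growth.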
Assays:
Experiment in all cases: NCI anticancer screen, dose series, 48 h
NCI-H23 lung = test system: NCI-H23 lung
SK-MEL-5 melanoma = test system: SK-MEL-5 melanoma
ACHN renal = test system: ACHN renal
OVCAR-5 ovarian = test system: OVCAR-5 ovarian
HCT-15 colon = test system: HCT-15 colon
SN12C renal = test system: SN12C renal
IGROV1 ovarian = test system: IGROV1 ovarian
U251 CNS = test system: U251 CNS
SK-MEL-2 melanoma = test system: SK-MEL-2 melanoma
HL-60(TB) leukemia = test system: HL-60(TB) leukemia
UACC-257 melanoma = test system: UACC-257 melanoma
A549 NSCLC = test system: A549 NSCLC
OVCAR-4 ovarian = test system: OVCAR-4 ovarian
UO-31 renal = test system: UO-31 renal
EKVX NSCLC = test system: EKVX NSCLC
RPMI-8226 leukemia = test system: RPMI-8226 leukemia
MDA-MB-231 breast = test system: MDA-MB-231 breast
NCI-H460 lung = test system: NCI-H460 lung
MALME-3M melanoma = test system: MALME-3M melanoma
CCRF-CEM leukemia = test system: CCRF-CEM leukemia
MDA-MB-435 = test system: MDA-MB-435
SF-539 CNS = test system: SF-539 CNS
786-0 renal = test system: 786-0 renal
NCI/ADR-RES ovarian = test system: NCI/ADR-RES ovarian
SF-268 CNS = test system: SF-268 CNS
NCI-H226 lung = test system: NCI-H226 lung
HT29 colon = test system: HT29 colon
DU-145 prostate = test system: DU-145 prostate
HCC-2998 colon = test system: HCC-2998 colon
TK-10 renal = test system: TK-10 renal
RXF 393 renal = test system: RXF 393 renal
SR leukemia = test system: SR leukemia
SNB-75 CNS = test system: SNB-75 CNS
LOX IMVI melanoma = test system: LOX IMVI melanoma
SNB-19 CNS = test system: SNB-19 CNS
COLO 205 colon = test system: COLO 205 colon
MDA-MB-468 breast = test system: MDA-MB-468 breast
NCI-H522 lung = test system: NCI-H522 lung
K-562 leukemia = test system: K-562 leukemia
UACC-62 melanoma = test system: UACC-62 melanoma
T-47D breast = test system: T-47D breast
HCT-116 colon = test system: HCT-116 colon
M14 melanoma = test system: M14 melanoma
CAKI-1 renal = test system: CAKI-1 renal
A498 renal = test system: A498 renal
OVCAR-8 ovarian = test system: OVCAR-8 ovarian
HOP-92 NSCLC = test system: HOP-92 NSCLC
SK-MEL-28 melanoma = test system: SK-MEL-28 melanoma
KM12 colon = test system: KM12 colon
BT-549 breast = test system: BT-549 breast
MCF7 breast = test system: MCF7 breast
OVCAR-3 ovarian = test system: OVCAR-3 ovarian
HOP-62 NSCLC = test system: HOP-62 NSCLC
SW-620 colon = test system: SW-620 colon
SF-295 CNS = test system: SF-295 CNS
MOLT-4 leukemia = test system: MOLT-4 leukemia
HS 578T breast = test system: HS 578T breast
SK-OV-3 ovarian = test system: SK-OV-3 ovarian

CCN1CCN(Cc2ccc(C(=O)Nc3cccc(-c4cn(-c5ccc6oc(=O)ccc6c5)nn4)c3)cc2C(F)(F)F)CC1 was tested, and the GI50 (NCI-H23 lung) was 1.79 µM, the TGI (NCI-H23 lung) was 3.56 µM and the GI50 (SK-MEL-5 melanoma) was 5.5 µM. The TGI (SK-MEL-5 melanoma) was 18 µM, the GI50 (ACHN renal) was 10.9 µM and the TGI (ACHN renal) was 22.9 µM. For the same molecule, the GI50 (OVCAR-5 ovarian) was 16.2 µM, the TGI (OVCAR-5 ovarian) was 29.7 µM and the GI50 (HCT-15 colon) was 1.78 µM. It also gave a TGI (HCT-15 colon) of 3.45 µM, a GI50 (SN12C renal) of 14.3 µM and a TGI (SN12C renal) of 27.4 µM. It also gave a GI50 (IGROV1 ovarian) of 10.5 µM, a TGI (IGROV1 ovarian) of 22.3 µM and a GI50 (U251 CNS) of 1.91 µM. The TGI (U251 CNS) was 4.03 µM, the GI50 (SK-MEL-2 melanoma) was 58.3 µM and the TGI (SK-MEL-2 melanoma) was > 100 µM. For the same molecule, the GI50 (HL-60(TB) leukemia) was 30.1 µM, the TGI (HL-60(TB) leukemia) was > 100 µM and the GI50 (UACC-257 melanoma) was 19.2 µM. For the same molecule, the TGI (UACC-257 melanoma) was 43.3 µM, the GI50 (A549 NSCLC) was 1.79 µM and the TGI (A549 NSCLC) was 3.64 µM. For the same molecule, the GI50 (OVCAR-4 ovarian) was 13.9 µM, the TGI (OVCAR-4 ovarian) was 27.6 µM and the GI50 (UO-31 renal) was 10.6 µM. It also gave a TGI (UO-31 renal) of 22.4 µM, a GI50 (EKVX NSCLC) of 3.81 µM and a TGI (EKVX NSCLC) of 14.6 µM. It also gave a GI50 (RPMI-8226 leukemia) of 2.62 µM, a TGI (RPMI-8226 leukemia) of 12.2 µM and a GI50 (MDA-MB-231 breast) of 1.78 µM. For the same molecule, the TGI (MDA-MB-231 breast) was 3.2 µM, the GI50 (NCI-H460 lung) was 3.61 µM and the TGI (NCI-H460 lung) was 12.6 µM. For the same molecule, the GI50 (MALME-3M melanoma) was 1.6 µM, the TGI (MALME-3M melanoma) was 3 µM and the GI50 (CCRF-CEM leukemia) was 2.23 µM. It also gave a TGI (CCRF-CEM leukemia) of 8.3 µM, a GI50 (MDA-MB-435) of 1.76 µM and a TGI (MDA-MB-435) of 3.6 µM. The GI50 (SF-539 CNS) was 12.2 µM, the TGI (SF-539 CNS) was 24.6 µM and the GI50 (786-0 renal) was 2.05 µM. The TGI (786-0 renal) was 4.05 µM, the GI50 (NCI/ADR-RES ovarian) was 1.82 µM and the TGI (NCI/ADR-RES ovarian) was 3.54 µM. It also gave a GI50 (SF-268 CNS) of 18.1 µM, a TGI (SF-268 CNS) of 45.6 µM and a GI50 (NCI-H226 lung) of 13.6 µM. The TGI (NCI-H226 lung) was 27 µM, the GI50 (HT29 colon) was 1.77 µM and the TGI (HT29 colon) was 3.72 µM. The GI50 (DU-145 prostate) was 15.8 µM, the TGI (DU-145 prostate) was 29.2 µM and the GI50 (HCC-2998 colon) was 2.52 µM. It also gave a TGI (HCC-2998 colon) of 5.47 µM, a GI50 (TK-10 renal) of 19.9 µM and a TGI (TK-10 renal) of 34.1 µM. The GI50 (RXF 393 renal) was 1.77 µM, the TGI (RXF 393 renal) was 3.47 µM and the GI50 (SR leukemia) was 6.47 µM. It also gave a TGI (SR leukemia) of 52.6 µM, a GI50 (SNB-75 CNS) of 12.2 µM and a TGI (SNB-75 CNS) of 24.6 µM. For the same molecule, the GI50 (LOX IMVI melanoma) was 1.69 µM, the TGI (LOX IMVI melanoma) was 3.06 µM and the GI50 (SNB-19 CNS) was 17.3 µM. For the same molecule, the TGI (SNB-19 CNS) was 31.1 µM, the GI50 (COLO 205 colon) was > 100 µM and the TGI (COLO 205 colon) was > 100 µM. The GI50 (MDA-MB-468 breast) was 12.3 µM, the TGI (MDA-MB-468 breast) was 27.4 µM and the GI50 (NCI-H522 lung) was 17.2 µM. For the same molecule, the TGI (NCI-H522 lung) was 30.9 µM, the GI50 (K-562 leukemia) was 2.34 µM and the TGI (K-562 leukemia) was 7.26 µM. The GI50 (UACC-62 melanoma) was 12.3 µM, the TGI (UACC-62 melanoma) was 24.7 µM and the GI50 (T-47D breast) was > 100 µM. For the same molecule, the TGI (T-47D breast) was > 100 µM, the GI50 (HCT-116 colon) was 1.82 µM and the TGI (HCT-116 colon) was 3.68 µM. It also gave a GI50 (M14 melanoma) of 2.46 µM, a TGI (M14 melanoma) of 6.86 µM and a GI50 (CAKI-1 renal) of 16.5 µM. For the same molecule, the TGI (CAKI-1 renal) was 39.7 µM, the GI50 (A498 renal) was 29.1 µM and the TGI (A498 renal) was > 100 µM. The GI50 (OVCAR-8 ovarian) was 7.71 µM, the TGI (OVCAR-8 ovarian) was 20.3 µM and the GI50 (HOP-92 NSCLC) was 11.1 µM. The TGI (HOP-92 NSCLC) was 39.8 µM, the GI50 (SK-MEL-28 melanoma) was 1.81 µM and the TGI (SK-MEL-28 melanoma) was 3.29 µM. The GI50 (KM12 colon) was 5.37 µM, the TGI (KM12 colon) was 17.6 µM and the GI50 (BT-549 breast) was > 100 µM. For the same molecule, the TGI (BT-549 breast) was > 100 µM, the GI50 (MCF7 breast) was 1.68 µM and the TGI (MCF7 breast) was 3.2 µM. For the same molecule, the GI50 (OVCAR-3 ovarian) was 16.5 µM, the TGI (OVCAR-3 ovarian) was 30 µM and the GI50 (HOP-62 NSCLC) was 16.4 µM. For the same molecule, the TGI (HOP-62 NSCLC) was 31.4 µM, the GI50 (SW-620 colon) was 1.71 µM and the TGI (SW-620 colon) was 3.41 µM. The GI50 (SF-295 CNS) was 14.8 µM, the TGI (SF-295 CNS) was 28 µM and the GI50 (MOLT-4 leukemia) was 2.88 µM. It also gave a TGI (MOLT-4 leukemia) of 12.9 µM, a GI50 (HS 578T breast) of 18.2 µM and a TGI (HS 578T breast) of 67 µM. The GI50 (SK-OV-3 ovarian) was 21.7 µM and the TGI (SK-OV-3 ovarian) was 79.4 µM.

Source: PubChem BioAssay (NCI)
